# Assay results taken from the NIST ThermoML archive (doi:10.1021/je101361u).
# Numbers after ± are expanded uncertainties.
# Assay: xn = mol fraction of the nth substance listed
# Settings: 101.3 kPa, Liquid
structure (smiles),measurement,setting,value
"COCCOC [1,2-dimethoxyethane] + ClCCCl",mass density,"283.15 K, x2 = 0.0251",885.37 ± 0.49 kg/m3
same,mass density,"283.15 K, x2 = 0.05",893.06 ± 0.48 kg/m3
same,mass density,"283.15 K, x2 = 0.0501",893.14 ± 0.48 kg/m3
same,mass density,"283.15 K, x2 = 0.075",900.9 ± 0.46 kg/m3
same,mass density,"283.15 K, x2 = 0.1",908.78 ± 0.45 kg/m3
same,mass density,"283.15 K, x2 = 0.1552",926.63 ± 0.42 kg/m3
same,mass density,"283.15 K, x2 = 0.2001",941.4 ± 0.39 kg/m3
same,mass density,"283.15 K, x2 = 0.2501",958.23 ± 0.37 kg/m3
same,mass density,"283.15 K, x2 = 0.3002",975.46 ± 0.34 kg/m3
same,mass density,"283.15 K, x2 = 0.35",992.96 ± 0.32 kg/m3
same,mass density,"283.15 K, x2 = 0.4001",1010.98 ± 0.32 kg/m3
same,mass density,"283.15 K, x2 = 0.45",1029.37 ± 0.34 kg/m3
same,mass density,"283.15 K, x2 = 0.5",1048.22 ± 0.36 kg/m3
same,mass density,"283.15 K, x2 = 0.5001",1048.32 ± 0.36 kg/m3
same,mass density,"283.15 K, x2 = 0.55",1067.59 ± 0.38 kg/m3
same,mass density,"283.15 K, x2 = 0.6001",1087.41 ± 0.4 kg/m3
same,mass density,"283.15 K, x2 = 0.65",1107.73 ± 0.43 kg/m3
same,mass density,"283.15 K, x2 = 0.7",1128.6 ± 0.45 kg/m3
same,mass density,"283.15 K, x2 = 0.75",1150.14 ± 0.48 kg/m3
same,mass density,"283.15 K, x2 = 0.8",1172.13 ± 0.51 kg/m3
same,mass density,"283.15 K, x2 = 0.85",1195.03 ± 0.54 kg/m3
same,mass density,"283.15 K, x2 = 0.9",1218.48 ± 0.57 kg/m3
same,mass density,"283.15 K, x2 = 0.925",1230.36 ± 0.58 kg/m3
same,mass density,"283.15 K, x2 = 0.975",1254.94 ± 0.61 kg/m3
same,mass density,"288.15 K, x2 = 0.0251",879.96 ± 0.49 kg/m3
same,mass density,"288.15 K, x2 = 0.05",887.61 ± 0.48 kg/m3
same,mass density,"288.15 K, x2 = 0.0501",887.69 ± 0.48 kg/m3
same,mass density,"288.15 K, x2 = 0.075",895.43 ± 0.47 kg/m3
same,mass density,"288.15 K, x2 = 0.1",903.28 ± 0.45 kg/m3
same,mass density,"288.15 K, x2 = 0.1552",921.05 ± 0.42 kg/m3
same,mass density,"288.15 K, x2 = 0.2001",935.76 ± 0.4 kg/m3
same,mass density,"288.15 K, x2 = 0.2501",952.53 ± 0.37 kg/m3
same,mass density,"288.15 K, x2 = 0.3002",969.68 ± 0.35 kg/m3
same,mass density,"288.15 K, x2 = 0.35",987.11 ± 0.32 kg/m3
same,mass density,"288.15 K, x2 = 0.4001",1005.05 ± 0.31 kg/m3
same,mass density,"288.15 K, x2 = 0.45",1023.36 ± 0.33 kg/m3
same,mass density,"288.15 K, x2 = 0.5",1042.13 ± 0.35 kg/m3
same,mass density,"288.15 K, x2 = 0.5001",1042.23 ± 0.35 kg/m3
same,mass density,"288.15 K, x2 = 0.55",1061.41 ± 0.37 kg/m3
same,mass density,"288.15 K, x2 = 0.6001",1081.15 ± 0.39 kg/m3
same,mass density,"288.15 K, x2 = 0.65",1101.37 ± 0.42 kg/m3
same,mass density,"288.15 K, x2 = 0.7",1122.14 ± 0.44 kg/m3
same,mass density,"288.15 K, x2 = 0.75",1143.57 ± 0.47 kg/m3
same,mass density,"288.15 K, x2 = 0.8",1165.45 ± 0.5 kg/m3
same,mass density,"288.15 K, x2 = 0.85",1188.23 ± 0.53 kg/m3
same,mass density,"288.15 K, x2 = 0.9",1211.55 ± 0.55 kg/m3
same,mass density,"288.15 K, x2 = 0.925",1223.37 ± 0.57 kg/m3
same,mass density,"288.15 K, x2 = 0.975",1247.8 ± 0.6 kg/m3
same,mass density,"293.15 K, x2 = 0.0251",874.49 ± 0.5 kg/m3
same,mass density,"293.15 K, x2 = 0.05",882.11 ± 0.49 kg/m3
same,mass density,"293.15 K, x2 = 0.0501",882.19 ± 0.49 kg/m3
same,mass density,"293.15 K, x2 = 0.075",889.9 ± 0.47 kg/m3
same,mass density,"293.15 K, x2 = 0.1",897.71 ± 0.46 kg/m3
same,mass density,"293.15 K, x2 = 0.1552",915.42 ± 0.43 kg/m3
same,mass density,"293.15 K, x2 = 0.2001",930.07 ± 0.41 kg/m3
same,mass density,"293.15 K, x2 = 0.2501",946.77 ± 0.38 kg/m3
same,mass density,"293.15 K, x2 = 0.3002",963.86 ± 0.35 kg/m3
same,mass density,"293.15 K, x2 = 0.35",981.21 ± 0.33 kg/m3
same,mass density,"293.15 K, x2 = 0.4001",999.08 ± 0.31 kg/m3
same,mass density,"293.15 K, x2 = 0.45",1017.3 ± 0.32 kg/m3
same,mass density,"293.15 K, x2 = 0.5",1035.99 ± 0.34 kg/m3
same,mass density,"293.15 K, x2 = 0.5001",1036.09 ± 0.34 kg/m3
same,mass density,"293.15 K, x2 = 0.55",1055.19 ± 0.36 kg/m3
same,mass density,"293.15 K, x2 = 0.6001",1074.83 ± 0.39 kg/m3
same,mass density,"293.15 K, x2 = 0.65",1094.96 ± 0.41 kg/m3
same,mass density,"293.15 K, x2 = 0.7",1115.63 ± 0.43 kg/m3
same,mass density,"293.15 K, x2 = 0.75",1136.95 ± 0.46 kg/m3
same,mass density,"293.15 K, x2 = 0.8",1158.71 ± 0.49 kg/m3
same,mass density,"293.15 K, x2 = 0.85",1181.37 ± 0.52 kg/m3
same,mass density,"293.15 K, x2 = 0.9",1204.56 ± 0.54 kg/m3
same,mass density,"293.15 K, x2 = 0.925",1216.32 ± 0.56 kg/m3
same,mass density,"293.15 K, x2 = 0.975",1240.62 ± 0.59 kg/m3
same,mass density,"298.15 K, x2 = 0.0251",868.99 ± 0.51 kg/m3
same,mass density,"298.15 K, x2 = 0.05",876.59 ± 0.49 kg/m3
same,mass density,"298.15 K, x2 = 0.0501",876.66 ± 0.49 kg/m3
same,mass density,"298.15 K, x2 = 0.075",884.34 ± 0.48 kg/m3
same,mass density,"298.15 K, x2 = 0.1",892.12 ± 0.47 kg/m3
same,mass density,"298.15 K, x2 = 0.1552",909.76 ± 0.44 kg/m3
same,mass density,"298.15 K, x2 = 0.2001",924.35 ± 0.41 kg/m3
same,mass density,"298.15 K, x2 = 0.2501",940.98 ± 0.39 kg/m3
same,mass density,"298.15 K, x2 = 0.3002",957.99 ± 0.36 kg/m3
same,mass density,"298.15 K, x2 = 0.35",975.28 ± 0.34 kg/m3
same,mass density,"298.15 K, x2 = 0.4001",993.07 ± 0.31 kg/m3
same,mass density,"298.15 K, x2 = 0.45",1011.21 ± 0.32 kg/m3
same,mass density,"298.15 K, x2 = 0.5",1029.82 ± 0.33 kg/m3
same,mass density,"298.15 K, x2 = 0.5001",1029.91 ± 0.33 kg/m3
same,mass density,"298.15 K, x2 = 0.55",1048.93 ± 0.36 kg/m3
same,mass density,"298.15 K, x2 = 0.6001",1068.48 ± 0.38 kg/m3
same,mass density,"298.15 K, x2 = 0.65",1088.51 ± 0.4 kg/m3
same,mass density,"298.15 K, x2 = 0.7",1109.08 ± 0.42 kg/m3
same,mass density,"298.15 K, x2 = 0.75",1130.3 ± 0.45 kg/m3
same,mass density,"298.15 K, x2 = 0.8",1151.94 ± 0.48 kg/m3
same,mass density,"298.15 K, x2 = 0.85",1174.49 ± 0.51 kg/m3
same,mass density,"298.15 K, x2 = 0.9",1197.56 ± 0.53 kg/m3
same,mass density,"298.15 K, x2 = 0.925",1209.25 ± 0.55 kg/m3
same,mass density,"298.15 K, x2 = 0.975",1233.42 ± 0.58 kg/m3
same,mass density,"303.15 K, x2 = 0.0251",863.45 ± 0.51 kg/m3
same,mass density,"303.15 K, x2 = 0.05",871.02 ± 0.5 kg/m3
same,mass density,"303.15 K, x2 = 0.0501",871.08 ± 0.5 kg/m3
same,mass density,"303.15 K, x2 = 0.075",878.74 ± 0.49 kg/m3
same,mass density,"303.15 K, x2 = 0.1",886.49 ± 0.47 kg/m3
same,mass density,"303.15 K, x2 = 0.1552",904.05 ± 0.44 kg/m3
same,mass density,"303.15 K, x2 = 0.2001",918.59 ± 0.42 kg/m3
same,mass density,"303.15 K, x2 = 0.2501",935.15 ± 0.39 kg/m3
same,mass density,"303.15 K, x2 = 0.3002",952.09 ± 0.37 kg/m3
same,mass density,"303.15 K, x2 = 0.35",969.3 ± 0.34 kg/m3
same,mass density,"303.15 K, x2 = 0.4001",987.02 ± 0.32 kg/m3
same,mass density,"303.15 K, x2 = 0.45",1005.09 ± 0.31 kg/m3
same,mass density,"303.15 K, x2 = 0.5",1023.61 ± 0.33 kg/m3
same,mass density,"303.15 K, x2 = 0.5001",1023.7 ± 0.33 kg/m3
same,mass density,"303.15 K, x2 = 0.55",1042.63 ± 0.35 kg/m3
same,mass density,"303.15 K, x2 = 0.6001",1062.09 ± 0.37 kg/m3
same,mass density,"303.15 K, x2 = 0.65",1082.03 ± 0.39 kg/m3
same,mass density,"303.15 K, x2 = 0.7",1102.5 ± 0.41 kg/m3
same,mass density,"303.15 K, x2 = 0.75",1123.6 ± 0.44 kg/m3
same,mass density,"303.15 K, x2 = 0.8",1145.15 ± 0.47 kg/m3
same,mass density,"303.15 K, x2 = 0.85",1167.57 ± 0.5 kg/m3
same,mass density,"303.15 K, x2 = 0.9",1190.51 ± 0.52 kg/m3
same,mass density,"303.15 K, x2 = 0.925",1202.14 ± 0.54 kg/m3
same,mass density,"303.15 K, x2 = 0.975",1226.18 ± 0.57 kg/m3
same,mass density,"308.15 K, x2 = 0.0251",857.87 ± 0.52 kg/m3
same,mass density,"308.15 K, x2 = 0.05",865.42 ± 0.51 kg/m3
same,mass density,"308.15 K, x2 = 0.0501",865.47 ± 0.51 kg/m3
same,mass density,"308.15 K, x2 = 0.075",873.1 ± 0.49 kg/m3
same,mass density,"308.15 K, x2 = 0.1",880.82 ± 0.48 kg/m3
same,mass density,"308.15 K, x2 = 0.1552",898.32 ± 0.45 kg/m3
same,mass density,"308.15 K, x2 = 0.2001",912.79 ± 0.42 kg/m3
same,mass density,"308.15 K, x2 = 0.2501",929.28 ± 0.4 kg/m3
same,mass density,"308.15 K, x2 = 0.3002",946.16 ± 0.37 kg/m3
same,mass density,"308.15 K, x2 = 0.35",963.29 ± 0.35 kg/m3
same,mass density,"308.15 K, x2 = 0.4001",980.93 ± 0.32 kg/m3
same,mass density,"308.15 K, x2 = 0.45",998.92 ± 0.3 kg/m3
